Measurements taken from US20230159546A1, “NOVEL SPIROPYRROLIDINE DERIVED ANTIVIRAL AGENTS” (Enanta Pharmaceuticals, Inc., priority 2021, published 2023).
Where two headings read alike, the source gives them in different places.

Assays:
[1] = tested on: 229E human corona virus (hCoV); experiment: 229E live virus assay (CPE, ATPlite readout, MRC-5 cells); type: cell-based, hCoV-229E; settings: Human coronavirus 229E, MRC5, 144 h, read-out: 229E EC50
SARS-CoV-2 3CL-protease = SARS-CoV-2 3CL-protease (Severe acute respiratory syndrome coronavirus 2, UniProt P0DTD1); experiment: SARS-CoV-2 3C-like (3CL) protease fluorescence assay (FRET); type: biochemical; settings: recombinant SARS-CoV-2 3CL-protease 10 nM, 30 min preincubation at RT, duplicate; read-out: FRET IC50
[2] = MRC-5 cells, MOI 0.05, 6 days at 34° C., ATPlite, duplicate

Row | SMILES | EC50 [1, 2] [nM] | IC50 (SARS-CoV-2 3CL-protease) [nM] | EC50 [1] [nM]
1 | N#C[C@@H]1C[C@@]2(CN1C(=O)[C@H](Cc1ccccc1)C(=O)Nc1cc(F)cc(F)c1)C(=O)Nc1ccccc12 [Example 26] | > 1000 | > 1000 | –
2 | N#C[C@@H]1C[C@@]2(CN1C(=O)C(F)(Cc1ccccc1)C(=O)Nc1ccccc1)C(=O)Nc1ccccc12 (stereo partly drawn) [Example 27] | > 1000 | > 1000 | –
3 | N#C[C@@H]1C[C@@]2(CN1C(=O)C(F)(Cc1ccccc1)C(=O)Nc1cc(F)cc(F)c1)C(=O)Nc1ccccc12 (stereo partly drawn) [Example 28] | > 1000 | > 1000 | –
4 | CC(=O)N1C[C@]2(C[C@H]1C#N)C(=O)Nc1ccccc12 [Example 29] | 100 to 1000 | > 1000 | –
5 | N#C[C@@H]1C[C@@]2(CN1C(=O)c1ccccc1)C(=O)Nc1ccccc12 [Example 30] | 100 to 1000 | > 1000 | –
6 | CC(C)CC(C(=O)N1C[C@]2(C[C@H]1C#N)C(=O)Nc1ccccc12)c1ccc(NC(=O)c2cc3c(F)cccc3[nH]2)cn1 (stereo partly drawn) [Example 31] | > 1000 | > 1000 | –
7 | Cc1ccc(S(=O)(=O)N2C[C@]3(C[C@H]2C#N)C(=O)Nc2ccccc23)cc1 [Example 32] | – | > 1000 | > 1000
8 | N#C[C@@H]1C[C@@]2(CN1S(=O)(=O)c1ncc(-c3ccc(F)cc3)s1)C(=O)Nc1ccccc12 [Example 33] | > 1000 | > 1000 | –
9 | Cc1nc(-c2ccc(S(=O)(=O)N3C[C@]4(C[C@H]3C#N)C(=O)Nc3ccccc34)s2)cs1 [Example 34] | > 1000 | > 1000 | –
10 | N#C[C@@H]1C[C@@]2(CN1S(=O)(=O)c1ccc(Oc3ccccc3)cc1)C(=O)Nc1ccccc12 [Example 35] | > 1000 | > 1000 | –
11 | N#C[C@@H]1C[C@@]2(CN1C(=O)c1ccc(-c3ccccc3)cc1)C(=O)Nc1ccccc12 [Example 36] | > 1000 | > 1000 | –
12 | N#C[C@@H]1C[C@@]2(CN1C(=O)c1cc3ccccc3nc1Cl)C(=O)Nc1ccccc12 [Example 37] | > 1000 | > 1000 | –
13 | N#C[C@@H]1C[C@@]2(CN1C(=O)NC1CCCCC1)C(=O)Nc1ccccc12 [Example 38] | < 100 | > 1000 | –
14 | N#C[C@@H]1C[C@@]2(CN1CC1CCCCC1)C(=O)Nc1ccccc12 [Example 39] | > 1000 | > 1000 | –
15 | CC(C)C(=O)N1C[C@]2(C[C@H]1C#N)C(=O)Nc1ccccc12 [Example 40] | > 1000 | > 1000 | –
16 | CC(C)(C)C(=O)N1C[C@]2(C[C@H]1C#N)C(=O)Nc1ccccc12 [Example 41] | > 1000 | > 1000 | –
17 | N#C[C@@H]1C[C@@]2(CN1C(=O)C1CC1)C(=O)Nc1ccccc12 [Example 42] | > 1000 | > 1000 | –
18 | N#C[C@@H]1C[C@@]2(CN1C(=O)C1CCCCC1)C(=O)Nc1ccccc12 [Example 43] | > 1000 | > 1000 | –
19 | N#C[C@@H]1C[C@@]2(CN1C(=O)c1ccc3cccnc3c1)C(=O)Nc1ccccc12 [Example 44] | > 1000 | > 1000 | –
20 | CCNC(=O)N1C[C@]2(C[C@H]1C#N)C(=O)Nc1ccccc12 [Example 46] | > 1000 | > 1000 | –
21 | CC(C)NC(=O)N1C[C@]2(C[C@H]1C#N)C(=O)Nc1ccccc12 [Example 47] | > 1000 | > 1000 | –
22 | N#C[C@@H]1C[C@@]2(CN1C(=O)NC1CC1)C(=O)Nc1ccccc12 [Example 48] | – | > 1000 | > 1000
23 | N#C[C@@H]1C[C@@]2(CN1C(=O)NC1CCCC1)C(=O)Nc1ccccc12 [Example 49] | 100 to 1000 | > 1000 | –
24 | N#C[C@@H]1C[C@@]2(CN1C(=O)Nc1ccccc1)C(=O)Nc1ccccc12 [Example 50] | > 1000 | > 1000 | –
25 | N#C[C@@H]1C[C@@]2(CN1C(=O)NCc1ccccc1)C(=O)Nc1ccccc12 [Example 51] | 100 to 1000 | > 1000 | –
26 | N#C[C@@H]1C[C@@]2(CN1C(=O)Nc1ccc3cccnc3c1)C(=O)Nc1ccccc12 [Example 52] | > 1000 | > 1000 | –
27 | N#C[C@@H]1C[C@@]2(CN1C(=O)NCc1nccs1)C(=O)Nc1ccccc12 [Example 53] | > 1000 | > 1000 | –
